These are literature values, as cited in patent US20010031279A1, “Controlled delivery of antidepressants” (priority 1998, published 2001).

Structures can show the parent of a compound that is named as a salt.

As to `CCc1nn(CCCN2CCN(c3cccc(Cl)c3)CC2)c(=O)n1CCOc1ccccc1` [nefazodone hydrochloride, 2-[3-[4-(3-chlorophenyl)-piperazinyl]propyl]-5-ethyl-4-(2-phenoxyethyl)-2H-1,2,4-triazol-3(4H)-one hydrochloride], where the note is “conventional immediate release formulations”, the “time of peak plasma concentrations after dosing” value was “about one”. Besides, where the note is “in vivo”, the half-life (in general, the time needed for the level to fall by half in the phase considered) was 2 to 4 h.
